US9718825B2, “N-(4-(azaindazol-6-yl)-phenyl)-sulfonamides and their use as pharmaceuticals” (priority 2013, dated 2017)

Tests used:
[1] = target: recombinant human SGK-1 enzyme; assay: Enzymatic activity assay: SGK-1 substrate peptide phosphorylation (Caliper lab-chip mobility shift); assay type: biochemical; conditions: peptide substrate 1 μM, ATP 10 μM, 60 min at 37° C., read-out: IC50 values for inhibition of SGK-1 enzymatic activity
[2] = system: SGK-1 dependent phosphorylation of GSK3beta in U2OS cells; assay: SGK-1 dependent phosphorylation of GSK3beta in U2OS cells overexpressing recombinant SGK-1 and GSK3beta; assay type: cell-based, human; conditions: Homo sapiens, U2OS, 6 h, read-out: IC50 values for inhibition of SGK-1 dependent phosphorylation of GSK3beta in U2OS cells

Cc1ccc(C#N)c(S(=O)(=O)Nc2ccc(-c3cc4[nH]nc(C)c4cn3)cc2)c1 [Example 561, 2-Cyano-5-methyl-N-[4-(3-methyl-1H-pyrazolo[4,3-c]pyridin-6-yl)phenyl]benzenesulfonamide]
IC50 [1]: 7.8 nM
IC50 [2]: 2700 nM
